Patent publication US20230181535A1, “UBIQUITIN-LIGASE INHIBITORS FOR THE TREATMENT OF CANCER” (FUNDACIÓN PROFESOR NOVOA SANTOS, priority 2020, published 2023)
Where “and” joins values, the source holds several entries; their conditions need not be identical. Equal entries are not always repeated. Entries after “also recorded” stand apart in the source; their conditions may differ.

Experiments:
[1] = molecular target: T1, E3 ubiquitin-ligase Hakai (Mus musculus, UniProt Q9JIY2); assay: In vivo Hakai-dependent ubiquitination assay in 293T cells; format: cell-based; settings: vs DMSO
T1 construct: expressed in transfected cells; host or cells: HEK293T
T1 sequence (Q9JIY2 1-491): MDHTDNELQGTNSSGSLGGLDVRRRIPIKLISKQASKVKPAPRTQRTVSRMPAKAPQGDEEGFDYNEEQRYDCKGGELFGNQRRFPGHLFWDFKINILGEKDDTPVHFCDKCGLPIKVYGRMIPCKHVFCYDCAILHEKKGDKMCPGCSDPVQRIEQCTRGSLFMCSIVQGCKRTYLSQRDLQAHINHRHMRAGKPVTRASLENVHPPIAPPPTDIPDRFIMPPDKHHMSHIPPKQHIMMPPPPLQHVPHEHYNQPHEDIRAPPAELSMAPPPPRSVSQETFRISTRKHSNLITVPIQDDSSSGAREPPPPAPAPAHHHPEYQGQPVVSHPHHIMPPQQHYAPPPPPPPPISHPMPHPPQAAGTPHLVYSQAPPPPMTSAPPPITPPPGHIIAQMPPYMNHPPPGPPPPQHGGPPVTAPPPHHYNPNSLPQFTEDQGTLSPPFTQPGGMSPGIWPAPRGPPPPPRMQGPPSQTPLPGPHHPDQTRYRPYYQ
Description: For ubiquitination assays, 750.000 HEK293T cells were seeded in 6-well cell culture plates and after 24 h were transfected with 0.25 μg Src, 0.75 μg Flag-Hakai, and 0.5 μg HA-ubiquitin with Lipofectamin 2000 (Invitrogen, UK). Six hours after transfection cells were treated with indicated concentrations of Hakin-1, Hakin-5 or the rest of the compounds tested for 36 h. Whole cell extracts were obtained in lysis buffer (20 mM Tris-HCl pH 7.5, 150 mM NaCl and 1% Triton X-100) containing 10 μg/ml leupeptin, 10 μg/ml aprotinin and 1 mM phenylmethanesulphonyl fluoride (PMSF), supplemented with 10 mM N-ethylmaleimide. Cells were harvested and subjected to western blotting using anti-HA antibody to detect ubiquitination.

HT29 cell line = assay: Invasion assay, HT29 (dose/response); format: cell-based, human; settings: for cell invasion: treated 48 h, 1 μM, 10 μM, 50 μM, vs DMSO
Description: [The procedure below names another cell line; the source lists this cell line under the same test.] For invasion assays, cells were treated with Hakin-1 or DMSO as vehicle for 48 h using 1% FBS during the last 24 hours. 3×10^5 MDCK, MDCK-Hakai or LoVo cells were seeded in a cell invasion chamber (Cell invasion assay kit, Chemicon International) containing medium with 2% FBS. After 72 hours for MDCK and MDCK-Hakai Invasive and 16 h for LoVo cells, invasive cells invaded that reach the lower chamber containing 30% FBS were fixed and stained with crystal violet (Sigma Aldrich, St Louis, Mo.) following the manufacturer's specifications. For migration assays, HT29 cells were cultured with Hakin-1 or DMSO as vehicle for 48 h, using medium without serum the last 24 h. In the cell migration chamber were seeded 3×10^5 HT29 cells (Cell migration kit, Millipore, Bedford, Mass.) containing medium without serum. After 16 h, migrated cells in the lower chamber containing serum with 30% FBS were stained with crystal violet and counted following the manufacturer's specifications. For both invasion and migration assays cells were counted in five fields photographed with an Olympus microscope using a 20× objective, experiments were performed in triplicates for each condition and the assays were repeated at least three times. Results are expressed as mean±SD.

[2] = system: human cryopreserved hepatocytes; assay: Hepatocyte stability, human; format: in vitro ADME; settings: 3 μM
Description: (§1) Test compound (final substrate concentration 3 μM; final DMSO concentration 0.25%) were pre-incubated at 37° C., prior to the addition of a suspension of cryopreserved hepatocytes (final cell density 0.5×10^6 viable cells/mL in Williams E media supplemented with 2 mM L glutamine and 25 mM HEPES) to initiate the reaction. The reactions were stopped with acetonitrile containing internal standard at the appropriate time points ([…]). The termination plates were centrifuged at 2500 rpm at 4° C. for 30 minute to precipitate the protein. Following the hepatocyte stability assays, the samples were utilized for metabolite profiling. Hepatocyte stability in mouse and human was performed by using the incubation of tested compound (3 μM) with cryopreserved hepatocytes in suspension. Samples were removed at 6 time points over the course of a 60 min experiment and remaining test compound at each time point was analysed by using LC-MS/MS. Then, data was analysed and an intrinsic clearance (CLint) with standard error and half-life (t½) reported.

[3] = system: mouse cryopreserved hepatocytes; assay: Metabolite profiling in mouse cryopreserved hepatocytes; format: in vitro ADME; settings: for Area percentage in sample, 0 minute control / Area percentage in sample, 10 minute sample / Area percentage in sample, 20 minute sample / Absolute area in sample, 0 minute control / Absolute area in sample, 10 minute sample / Absolute area in sample, 20 minute sample: mouse hepatocyte samples; for Absolute area in sample, 0 minute control / Absolute area in sample, 10 minute sample / Absolute area in sample, 20 minute sample: XIC area
Description: as §1
The samples from the hepatocyte stability assay were utilized for metabolite profiling. The 10 and 20 minute samples were compared to the 0 minute control sample to identified the metabolites formed. […] The areas and percentages reported for the parent and metabolites have been calculated using the XIC data; it has been assumed that each metabolite has the same ionization efficiency and that the sensitivity of the metabolite has not been affected by the biotransformation. […] For accuracy, a ppm error of less than 5 is desirable; when the response for a metabolite observed is low the ppm error maybe greater than 5. Where a metabolite has been referred to as a potential oxidation it can refer to a potential hydroxylation, epoxidation or oxide formation. Representative collision induced dissociation (CID) mass spectra were obtained for the metabolites found. Structural elucidation was then performed on the metabolite observed. The data are processed using Metabolynx XS (Waters Ltd). When the compound structure has been provided, the data is processed using mass defect filtering1 with the dealkylation tool2; if the structure is not provided then mass defect, filtering alone is used. […] The de-alkylation tool is used in addition to the mass defect filtering to take into account that when the molecule cleaves metabolically e.g. at an amine group, the mass defect may change. Following this initial processing, the data is compared to the control sample to determine whether a series of expected metabolites are observed. Finally, the same data set is processed, using 1 a.m.u. windows across the whole data acquisition range to look for non-predicted or unexpected metabolites. After the automated Metabolynx XS processing, the data are reviewed to confirm the validity of the detected metabolites and to ensure correct assignment of the metabolite observed. The elemental formula for the observed ion and compound is reported, along with the error in parts per million (ppm) for the measured ion compared to the theoretical mass of the ion. […] Therefore, structures are depicted in Markush format3 with the shaded area showing potential sites of modification. Hepatocyte stability, metabolic profiling and test compound analysis was performed by Cyprotex Discovery.

IC50 (HT29 cell line; Homo sapiens, HT-29, treated 48 h, read-out: concentration at which 50% inhibition of invasion was achieved) [nM]	polarity compared to parent (LCMS) ([3]; metabolite from incubating compound #1 with mouse hepatocytes)	Structure (SMILES)	Hakai protein levels ([1]; 293T cells transfected with Src, Flag-Hakai and HA-ubiquitin)	ubiquitination mediated by Hakai ([1]; 293T cells transfected with Src, Flag-Hakai and HA-ubiquitin, western blotting anti-HA)	cell invasion (HT29 cell line)	compound remaining after 60 min [2]	found in hepatocyte stability assay samples (Mouse) [3]	Area percentage in sample, 0 minute control [3]	Area percentage in sample, 10 minute sample [3] [%]	Area percentage in sample, 20 minute sample [3] [%]	Absolute area in sample, 0 minute control [3]	Absolute area in sample, 10 minute sample [3]	Absolute area in sample, 20 minute sample [3]	Hakai-induced ubiquitination ([1]; HEK293T cells transfected with Hakai and ubiquitin)
		O=C(O)c1ccc(-n2nnnc2SCC(=O)c2ccc([N+](=O)[O-])cc2)cc1 [Hakin-1, 4-(5-[2-(4-nitrophenyl)-2-oxoethyl]thiol-1H-tetrazol-1-yl)benzoic acid]	no effect was seen in Hakai protein levels; also recorded: without affecting Hakai protein levels	strongly reduces the ubiquitination mediated by Hakai in a doses dependent-manner; also recorded: specific inhibitor for Hakai-mediated ubiquitination	reduce cell invasion	77.3%	✓	97.2%	26.2	5.99	43574	14090	2877	
~1000	more polar than the parent	O=C(O)c1ccc(-n2nnnc2SCC(O)c2ccc([N+](=O)[O-])cc2)cc1 (centres unmarked) [MKH1]			reduce cell invasion	95%-100%	✓	2.72% and 2.76%	73.8	94	1235	39618	45169	reduced ubiquitination at 20 μM and 100 μM
